Read-outs that look alike come from different tables or passages of the source.
Columns and labels:
[1] = system: p21 induction in HCT116 cells; assay: p21 induction in HCT116 cells; format: cell-based; details: Homo sapiens, HCT-116, 24 h, read-out: P21_EC50
Summary of the method: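 EC50 from non-linear curve fit of p21 immunofluorescence (800 nm), with GAPDH (700 nm) read alongside. DMSO and a reference WRN inhibitor served as low and high controls. Cells (2,000/well) got 11 compound concentrations in duplicate for 24 h at 37 °C.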

[2] = biological target: WRN (BV08), human Werner helicase (Uniprot Q14191, amino acids 517-1235 with L1074F point mutation) (Homo sapiens (Human), UniProt Q14191, L1074F); assay: WRN (BV08) ADP-Glo assay; format: biochemical; details: class symbols A-E, read-out: ADP-Glo_hWRN_IC50
Sequence of WRN (BV08), human Werner helicase (Uniprot Q14191, amino acids 517-1235 with L1074F point mutation) (Q14191 other isoform, or with tags, fused parts or gaps L1074F (already in the parent)): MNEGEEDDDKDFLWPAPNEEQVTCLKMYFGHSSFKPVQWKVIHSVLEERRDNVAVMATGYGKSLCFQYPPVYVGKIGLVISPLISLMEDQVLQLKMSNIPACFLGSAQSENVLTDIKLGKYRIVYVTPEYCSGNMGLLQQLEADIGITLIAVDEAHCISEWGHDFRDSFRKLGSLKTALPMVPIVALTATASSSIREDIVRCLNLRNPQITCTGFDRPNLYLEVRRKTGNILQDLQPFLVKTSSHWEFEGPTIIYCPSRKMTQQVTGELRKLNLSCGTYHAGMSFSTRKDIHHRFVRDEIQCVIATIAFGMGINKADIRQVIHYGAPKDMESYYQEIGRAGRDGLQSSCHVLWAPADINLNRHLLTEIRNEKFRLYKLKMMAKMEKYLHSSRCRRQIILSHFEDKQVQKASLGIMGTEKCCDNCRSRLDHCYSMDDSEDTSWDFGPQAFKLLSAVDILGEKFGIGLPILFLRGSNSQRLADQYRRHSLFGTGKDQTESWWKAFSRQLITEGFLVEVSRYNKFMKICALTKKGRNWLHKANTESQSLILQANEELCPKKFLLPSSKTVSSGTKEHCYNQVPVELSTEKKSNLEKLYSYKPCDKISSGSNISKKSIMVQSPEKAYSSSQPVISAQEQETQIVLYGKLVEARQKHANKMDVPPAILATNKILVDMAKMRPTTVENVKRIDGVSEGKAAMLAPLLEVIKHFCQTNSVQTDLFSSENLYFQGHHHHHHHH

[3] = HCT116 cells, 24 h compound incubation

SMILES | EC50 [1, 3] | IC50 [2] | EC50 [1]
C/C=C/c1nc2c(=O)c(N3CCN(C(=O)c4ncnc(C)c4O)CC3)c(CC)n(CC(=O)Nc3ccc(C(F)(F)F)cc3Cl)c2nc1C [I-21, (E)N-(2-chloro-4-(trifluoromethyl)phenyl)-2-(6-ethyl-7-(4-(5-hydroxy-6-methylpyrimidine-4-carbonyl)piperazin-1-yl)-3-methyl-8-oxo-2-(prop-1-en-1-yl)pyrido[2,3-b]pyrazin-5(8H)-yl)acetamide] | 500 to 2000 nM | 5 to 50 nM | –
CCc1c(N2CCN(C(=O)c3ncnc(C)c3O)CC2)c(=O)c2nc(C(C)(C)O)c(C)nc2n1CC(=O)Nc1ccc(C(F)(F)F)cc1Cl [I-22, N-(2-chloro-4-(trifluoromethyl)phenyl)-2-(6-ethyl-7-(4-(5-hydroxy-6-methylpyrimidine-4-carbonyl)piperazin-1-yl)-2-(2-hydroxypropan-2-yl)-3-methyl-8-oxopyrido[2,3-b]pyrazin-5(8H)-yl)acetamide] | > 5000 nM | 50 to 100 nM | –
C=C(C)c1nc2c(=O)c(N3CCN(C(=O)c4ncnc(C)c4O)CC3)c(CC)n(CC(=O)Nc3ccc(C(F)(F)F)cc3Cl)c2nc1C [I-23, N-(2-chloro-4-(trifluoromethyl)phenyl)-2-(6-ethyl-7-(4-(5-hydroxy-6-methylpyrimidine-4-carbonyl)piperazin-1-yl)-3-methyl-8-oxo-2-(prop-1-en-2-yl)pyrido[2,3-b]pyrazin-5(8H)-yl)acetamide] | – | 5 to 50 nM | 500 to 2000 nM
CCc1c(N2CCN(C(=O)c3ncnc(C)c3O)CC2)c(=O)c2nc(O)cnc2n1CC(=O)Nc1ccc(C(F)(F)F)cc1Cl [I-24, N-(2-chloro-4-(trifluoromethyl)phenyl)-2-(6-ethyl-2-hydroxy-7-(4-(5-hydroxy-6-methylpyrimidine-4-carbonyl)piperazin-1-yl)-8-oxopyrido[2,3-b]pyrazin-5(8H)-yl)acetamide] | > 5000 nM | 5 to 50 nM | –
CCc1c(N2CCN(C(=O)c3ncnc(C)c3O)CC2)c(=O)c2nc(CO)cnc2n1CC(=O)Nc1ccc(C(F)(F)F)cc1Cl [I-25, N-(2-chloro-4-(trifluoromethyl)phenyl)-2-(6-ethyl-7-(4-(5-hydroxy-6-methylpyrimidine-4-carbonyl)piperazin-1-yl)-2-(hydroxymethyl)-8-oxopyrido[2,3-b]pyrazin-5(8H)-yl)acetamide] | > 5000 nM | 50 to 100 nM | –
CCc1c(N2CCN(C(=O)c3ncnc(C)c3O)CC2)c(=O)c2nc(OC(F)F)cnc2n1CC(=O)Nc1ccc(C(F)(F)F)cc1Cl [I-26, N-(2-chloro-4-(trifluoromethyl)phenyl)-2-(2-(difluoromethoxy)-6-ethyl-7-(4-(5-hydroxy-6-methylpyrimidine-4-carbonyl)piperazin-1-yl)-8-oxopyrido[2,3-b]pyrazin-5(8H)-yl)acetamide] | > 5000 nM | 100 to 500 nM | –
CCc1c(N2CCN(C(=O)c3ncnc(C)c3O)CC2)c(=O)c2nc(N3CCCC3=O)cnc2n1CC(=O)Nc1ccc(C(F)(F)F)cc1Cl [I-27, N-(2-chloro-4-(trifluoromethyl)phenyl)-2-(6-ethyl-7-(4-(5-hydroxy-6-methylpyrimidine-4-carbonyl)piperazin-1-yl)-8-oxo-2-(2-oxopyrrolidin-1-yl)pyrido[2,3-b]pyrazin-5(8H)-yl)acetamide] | > 5000 nM | 5 to 50 nM | –
CCc1c(N2CCN(C(=O)c3ncnc(C)c3O)CC2)c(=O)c2nc(C(F)F)c(C)nc2n1CC(=O)Nc1ccc(C(F)(F)F)cc1Cl [I-28, N-(2-chloro-4-(trifluoromethyl)phenyl)-2-(2-(difluoromethyl)-6-ethyl-7-(4-(5-hydroxy-6-methylpyrimidine-4-carbonyl)piperazin-1-yl)-3-methyl-8-oxopyrido[2,3-b]pyrazin-5(8H)-yl)acetamide] | > 5000 nM | 5 to 50 nM | –
CCc1c(N2CCN(C(=O)c3ncnc(C)c3O)CC2)c(=O)c2nc(N(C)C)c(C)nc2n1CC(=O)Nc1ccc(C(F)(F)F)cc1Cl [I-29, N-(2-chloro-4-(trifluoromethyl)phenyl)-2-(2-(dimethylamino)-6-ethyl-7-(4-(5-hydroxy-6-methylpyrimidine-4-carbonyl)piperazin-1-yl)-3-methyl-8-oxopyrido[2,3-b]pyrazin-5(8H)-yl)acetamide] | – | 5 to 50 nM | 500 to 2000 nM
CCc1c(N2CCN(C(=O)c3ncnc(C)c3O)CC2)c(=O)c2nc(N(C)C(C)=O)cnc2n1CC(=O)Nc1ccc(C(F)(F)F)cc1Cl [I-30, N-(2-chloro-4-(trifluoromethyl)phenyl)-2-(6-ethyl-7-(4-(5-hydroxy-6-methylpyrimidine-4-carbonyl)piperazin-1-yl)-2-(N-methylacetamido)-8-oxopyrido[2,3-b]pyrazin-5(8H)-yl)acetamide] | > 5000 nM | 50 to 100 nM | –
CCc1c(N2CCN(C(=O)c3ncnc(C)c3O)CC2)c(=O)c2nc(NC(C)=O)cnc2n1CC(=O)Nc1ccc(C(F)(F)F)cc1Cl [I-31, 2-(2-acetamido-6-ethyl-7-(4-(5-hydroxy-6-methylpyrimidine-4-carbonyl)piperazin-1-yl)-8-oxopyrido[2,3-b]pyrazin-5(8H)-yl)-N-(2-chloro-4-(trifluoromethyl)phenyl)acetamide] | > 5000 nM | 5 to 50 nM | –
CCc1c(N2CCN(C(=O)c3[nH]nc(C)c3O)CC2)c(=O)c2ncc(C)nc2n1CC(=O)Nc1ccc(C(F)(F)F)cc1Cl [I-32, N-(2-chloro-4-(trifluoromethyl)phenyl)-2-(6-ethyl-7-(4-(4-hydroxy-3-methyl-1H-pyrazole-5-carbonyl)piperazin-1-yl)-3-methyl-8-oxopyrido[2,3-b]pyrazin-5(8H)-yl)acetamide] | > 5000 nM | 50 to 100 nM | –
CCc1c(N2CCN(C(=O)c3ccc4cn[nH]c4c3O)CC2)c(=O)c2ncc(C)nc2n1CC(=O)Nc1ccc(C(F)(F)F)cc1Cl [I-33, N-(2-chloro-4-(trifluoromethyl)phenyl)-2-(6-ethyl-7-(4-(7-hydroxy-1H-indazole-6-carbonyl)piperazin-1-yl)-3-methyl-8-oxopyrido[2,3-b]pyrazin-5(8H)-yl)acetamide] | > 5000 nM | 5 to 50 nM | –
CCc1c(N2CCN(C(=O)c3ncnc(C)c3O)CC2)c(=O)c2nc(/C=C3/CCOC3)cnc2n1CC(=O)Nc1ccc(C(F)(F)F)cc1Cl [I-35, N-(2-chloro-4-(trifluoromethyl)phenyl)-2-(2-((dihydrofuran-3(2H)-ylidene)methyl)-6-ethyl-7-(4-(5-hydroxy-6-methylpyrimidine-4-carbonyl)piperazin-1-yl)-8-oxopyrido[2,3-b]pyrazin-5(8H)-yl)acetamide] | 2000 to 5000 nM | 5 to 50 nM | –
CCc1c(N2CCN(C(=O)c3ncnc(C)c3O)CC2)c(=O)c2nc(C=C3CCOCC3)cnc2n1CC(=O)Nc1ccc(C(F)(F)F)cc1Cl [I-36, N-(2-chloro-4-(trifluoromethyl)phenyl)-2-(6-ethyl-7-(4-(5-hydroxy-6-methylpyrimidine-4-carbonyl)piperazin-1-yl)-8-oxo-2-((tetrahydro-4H-pyran-4-ylidene)methyl)pyrido[2,3-b]pyrazin-5(8H)-yl)acetamide] | 2000 to 5000 nM | 5 to 50 nM | –
CCc1c(N2CCN(C(=O)c3ncnc(C)c3O)CC2)c(=O)c2nc(C=C(C)C)cnc2n1CC(=O)Nc1ccc(C(F)(F)F)cc1Cl [I-37, N-(2-chloro-4-(trifluoromethyl)phenyl)-2-(6-ethyl-7-(4-(5-hydroxy-6-methylpyrimidine-4-carbonyl)piperazin-1-yl)-2-(2-methylprop-1-en-1-yl)-8-oxopyrido[2,3-b]pyrazin-5(8H)-yl)acetamide] | < 500 nM | ≤ 5 nM | –
CCc1c(N2CCN(C(=O)c3ncnc(C)c3O)CC2)c(=O)c2nc(C=C3CCC3)cnc2n1CC(=O)Nc1ccc(C(F)(F)F)cc1Cl [I-38, N-(2-chloro-4-(trifluoromethyl)phenyl)-2-(2-(cyclobutylidenemethyl)-6-ethyl-7-(4-(5-hydroxy-6-methylpyrimidine-4-carbonyl)piperazin-1-yl)-8-oxopyrido[2,3-b]pyrazin-5(8H)-yl)acetamide] | < 500 nM | ≤ 5 nM | –
CCc1c(N2CCN(C(=O)c3ncnc(C)c3O)CC2)c(=O)c2nc(CCO)cnc2n1CC(=O)Nc1ccc(C(F)(F)F)cc1Cl [I-41, N-(2-chloro-4-(trifluoromethyl)phenyl)-2-(6-ethyl-7-(4-(5-hydroxy-6-methylpyrimidine-4-carbonyl)piperazin-1-yl)-2-(2-hydroxyethyl)-8-oxopyrido[2,3-b]pyrazin-5(8H)-yl)acetamide] | > 5000 nM | 100 to 500 nM | –
CCc1c(N2CCN(C(=O)c3ncnc(C)c3O)CC2)c(=O)c2nc(N3CCCCC3)cnc2n1CC(=O)Nc1ccc(C(F)(F)F)cc1Cl [I-42, N-(2-chloro-4-(trifluoromethyl)phenyl)-2-(6-ethyl-7-(4-(5-hydroxy-6-methylpyrimidine-4-carbonyl)piperazin-1-yl)-8-oxo-2-(piperidin-1-yl)pyrido[2,3-b]pyrazin-5(8H)-yl)acetamide] | 2000 to 5000 nM | 5 to 50 nM | –
CCc1c(N2CCN(C(=O)c3ncnc(C)c3O)CC2)c(=O)c2ncc(Cl)nc2n1CC(=O)Nc1ccc(C(F)(F)F)cc1Cl [I-43, N-(2-chloro-4-(trifluoromethyl)phenyl)-2-(3-chloro-6-ethyl-7-(4-(5-hydroxy-6-methylpyrimidine-4-carbonyl)piperazin-1-yl)-8-oxopyrido[2,3-b]pyrazin-5(8H)-yl)acetamide] | > 5000 nM | 100 to 500 nM | –
CCc1c(N2CCN(C(=O)c3ncnc(C)c3O)CC2)c(=O)c2nc(N3CC(C)(O)C3)cnc2n1CC(=O)Nc1ccc(C(F)(F)F)cc1Cl [I-44, N-(2-chloro-4-(trifluoromethyl)phenyl)-2-(6-ethyl-2-(3-hydroxy-3-methylazetidin-1-yl)-7-(4-(5-hydroxy-6-methylpyrimidine-4-carbonyl)piperazin-1-yl)-8-oxopyrido[2,3-b]pyrazin-5(8H)-yl)acetamide] | > 5000 nM | 5 to 50 nM | –

— patent US20250034136A1 (Nimbus Wadjet, Inc., priority 2023, published 2025)
